PMC5823406, “Vehicle development, pharmacokinetics and toxicity of the anti-invasive agent 4-fluoro-3’,4’,5’-trimethoxychalcone in rodents” (PLoS ONE, 2018)
Values joined by “and” are separate entries in the source; they are usually repeats but may differ in a detail not shown here. Equal entries are not always repeated. Where two headings read alike, the source gives them in different places. Marks after values point to notes of the source that are not given here.

Key:
[1] = Plasma PK study (IV and PO) in male Sprague-Dawley rats; assay type: in vivo, rat
From the text: Six male Sprague-Dawley rats (200–350 g) were obtained from Hilltop Labs. Animals were assigned randomly to two groups (IV or PO) of 3 upon arrival. Duration of acclimation was approximately two days. Animals were healthy at the start of the trial.
Animals subjected to IV dosing were fitted with a jugular vein cannula (JVC) under isoflurane anesthesia (induction 4%, maintenance 2.0%, oxygen 1 L/min) and under an external heating source. Post-operative analgesia was provided in the form of 2.5–5 mg/kg of ketoprofen subcutaneously. Benzylpenicillin (60 mg) was given intramuscularly to prevent infection. Sterile 0.9% NaCl was injected subcutaneously under the back skin using a 21G needle during recovery to replace fluid loss. Animals were placed under a heat lamp and monitored until they regained full consciousness. […] Surgically modified animals were housed individually, monitored hourly for the first 4 h and then daily over a 2-day recovery period.
Animals were maintained in a well-controlled temperature (20–24°C) and humidity (30%-70%) environment with 12 h light/dark cycles. Conventional cages with wood chip bedding were used. Animals were identified by a cage label. The study was not blinded. Food was withheld from all animals for a minimum of twelve hours prior to test article administration and returned at approximately 4 h post-dose. Water was supplied ad libitum.
C16 was dosed in cassette with two undisclosed compounds of similar chemical structure. Dosing solutions were prepared in 100% DMSO on the day of dosing. The concentration of C16 was 1 and 5 mg/mL for IV and PO dosing, respectively. C16 was administered at 1 mg/kg IV via JVC or at 10 mg/kg PO.
Sampling took place pre-dose, 5, 15, 30 min, 1, 2, 4, and 8 h post-dose. Blood samples (0.3 mL) were collected via the JVC, placed into chilled tubes containing sodium heparin and kept on ice until centrifugation. Plasma preparation involved centrifugation at a temperature of 2 to 8°C at 3,000 g for 5 min. Plasma samples were stored frozen at -70°C until analysis. No necropsy was performed.
Pharmacokinetic parameters were estimated by a non-compartmental model using WinNonlin (v5.2.1 or higher) software. The maximum plasma/blood concentrations (c0) after IV dosing were estimated by extrapolation of the first two time points back to t = 0. The maximum blood concentration (cmax) and the time to reach maximum blood drug concentration (tmax) after PO dosing were derived from the data. The area under the time-concentration curve (AUC) was calculated using the linear trapezoidal rule with calculation to the last quantifiable data point, and with extrapolation to infinity if applicable. Plasma/blood half-life (t1/2) was calculated from 0.693/slope of the terminal elimination phase. Mean residence time (MRT) was calculated by dividing the area under the moment curve (AUMC) by the AUC. Clearance (CL) was calculated from dose/AUC. Steady-state volume of distribution (Vss) was calculated from CL*MRT. Bioavailability was determined by dividing the individual dose-normalized PO AUC values by the respective average dose-normalized intravenous (IV) AUC value. Samples that were below the limit of quantification were not used in the calculation of averages, and were treated as zero for pharmacokinetic data analysis. […]
(mAU.s) (mAU.s) peak area) (mAU.s) (mAU.s) peak area) (mAU.s) (mAU.s) peak area) […]
a. Dosing solution preparation
The dosing solution was prepared as a cassette to contain all three test articles in the same solution. IV dosing was fixed at 2 mg/mL of C16 and the two other test articles in neat DMSO as the vehicle, with a dosing volume 0.5 mL/kg (slow injection). PO dosing was set at 10 mg/mL of C16 and the two other test articles in neat DMSO as the vehicle, with a dosing volume of 1 mL/kg.
Individual plasma concentrations for C16 are shown in Table F and Table G. All data are expressed as ng/mL of the […]
free drug. […]

[2] = test system: MCF-7/6; assay: Chick heart invasion assay (3D confrontation culture); assay type: cell-based; conditions: Homo sapiens, MCF7/6; read-out: projected C16 EC50 value
From the text: Our laboratories have been characterizing and validating 4-fluoro-3’,4’,5’-trimethoxychalcone or C16 as a novel invasion inhibitor for the study and potential treatment of metastatic cancer (Fig 1). C16 has nanomolar anti-invasive potency in the chick heart and Matrigel in vitro invasion models against several human cancer cell lines (MCF-7/6 breast cancer, BLM melanoma and SK-OV-3 ovarian carcinoma). […] Given its discovery in a phenotypic model, the biological target of C16 is unknown. We have differentiated the molecular mechanism of action of C16 from that of other antimetastatic agents, and are currently characterizing its biochemical interactions in detail.
Fig 1 Structure and biological activity of C16.

[3] = male, Sprague-Dawley, rat, plasma, iv, 1 mg/kg, male Sprague-Dawley rat, IV 1 mg/kg, vehicle DMSO, average
[4] = male, Sprague-Dawley, rat, plasma, iv, 1 mg/kg, rat plasma, IV 1 mg/kg, individual animals 1-3
[5] = male, Sprague-Dawley, rat, plasma, po, 10 mg/kg, male Sprague-Dawley rat, PO 10 mg/kg, vehicle DMSO, average
[6] = male, Sprague-Dawley, rat, plasma, po, 10 mg/kg, male Sprague-Dawley rat, PO 10 mg/kg, vehicle DMSO, calculated for two out of three animals
[7] = plasma, male Sprague-Dawley rat, IV 1 mg/kg, vehicle DMSO, average
[8] = rat plasma, IV 1 mg/kg, individual animals 1-3, 1 mg/kg
[9] = rat plasma, PO 10 mg/kg, individual animals 4-6, 10 mg/kg
[10] = rat plasma, PO 10 mg/kg, individual animals 5-6, 10 mg/kg

With `COc1cc(C(=O)/C=C/c2ccc(F)cc2)cc(OC)c1OC` [C16, 4-fluoro-3’,4’,5’-trimethoxychalcone] the AUC(0-inf) [1, 3] was 215 ng·h/mL, the AUC(0-t) [1, 3] was 211 ng·h/mL and the MRT last [1, 3] was 0.76 h. The clearance [1, 3] was 82.5 mL/min/kg, the half-life [1, 3] was 1.93 h and the C0 ([1]; male, Sprague-Dawley, rat, plasma, iv, 1 mg/kg, male Sprague-Dawley rat, IV 1 mg/kg, vehicle DMSO, average, extrapolated to t = 0) was 1260 ng/mL. It also gave a Vd ([1]; male, Sprague-Dawley, rat, plasma, iv, 1 mg/kg, plasma, male Sprague-Dawley rat, IV 1 mg/kg, vehicle DMSO, average, read-out: Vss) of 4.77 L/kg, a Tmax ([1]; male, Sprague-Dawley, rat, plasma, iv, 1 mg/kg, plasma, male Sprague-Dawley rat, IV 1 mg/kg, vehicle DMSO, average, read-out: tmax) of 0 h and an AUC(0-inf) [1, 4] of 227 ng·h/mL. The AUC(0-t) [1, 4] was 224 ng·h/mL, the MRT last [1, 4] was 0.7 h and the clearance [1, 4] was 73.3 mL/min/kg. The half-life [1, 4] was 1.8 h, the Tmax ([1]; male, Sprague-Dawley, rat, plasma, iv, 1 mg/kg, rat plasma, IV 1 mg/kg, individual animals 1-3, read-out: tmax) was 0 h and the concentration at 0.5 h ([1]; male, Sprague-Dawley, rat, plasma, iv, 1 mg/kg, rat, IV 1 mg/kg, 0.50 h, animals 1-3, read-out: Individual plasma concentration) was 32.4 ng/mL. For the same compound, the concentration at 1 h ([1]; male, Sprague-Dawley, rat, plasma, iv, 1 mg/kg, rat, IV 1 mg/kg, 1.0 h, animals 1-3, read-out: Individual plasma concentration) was 23.1 ng/mL, the concentration at 2 h ([1]; male, Sprague-Dawley, rat, plasma, iv, 1 mg/kg, rat, IV 1 mg/kg, 2.0 h, animals 1-3, read-out: Individual plasma concentration) was 14.3 ng/mL and the concentration at 4 h ([1]; male, Sprague-Dawley, rat, plasma, iv, 1 mg/kg, rat, IV 1 mg/kg, 4.0 h, animals 1-3, read-out: Individual plasma concentration) was 4.94 ng/mL. It also gave a concentration at 8 h ([1]; male, Sprague-Dawley, rat, plasma, iv, 1 mg/kg, rat, IV 1 mg/kg, 8.0 h, animals 1-3, read-out: Individual plasma concentration) of 1.34 ng/mL, an AUC(0-t) [1, 5] of 146 ng·h/mL and an MRT last [1, 5] of 3.67 h. For the same compound, the AUC(0-inf) [1, 6] was 161 ng·h/mL, the half-life [1, 6] was 3.67 h and the Bioavailability ([1]; male, Sprague-Dawley, rat, plasma, po, 10 mg/kg, plasma, male Sprague-Dawley rat, PO 10 mg/kg, vehicle DMSO, average, read-out: Bioavailability) was 6.91%. The cmax ([1]; male, Sprague-Dawley, rat, plasma, po, 10 mg/kg, plasma, male Sprague-Dawley rat, PO 10 mg/kg, vehicle DMSO, average, read-out: cmax) was 32.2 ng/mL, the Tmax ([1]; male, Sprague-Dawley, rat, plasma, po, 10 mg/kg, plasma, male Sprague-Dawley rat, PO 10 mg/kg, vehicle DMSO, average, read-out: tmax) was 2.83 h and the MRT last ([1]; male, Sprague-Dawley, rat, plasma, po, 10 mg/kg, rat plasma, PO 10 mg/kg, individual animals 4-6) was 4.92 h. For the same compound, the concentration at 0.5 h ([1]; male, Sprague-Dawley, rat, plasma, po, 10 mg/kg, rat, PO 10 mg/kg, 0.50 h, animals 4-6, read-out: Individual plasma concentration) was 22.5 ng/mL, the concentration at 2 h ([1]; male, Sprague-Dawley, rat, plasma, po, 10 mg/kg, rat, PO 10 mg/kg, 2.0 h, animals 4-6, read-out: Individual plasma concentration) was 15.1 ng/mL and the “Dose-normalized AUClast” value [1, 7] was 211 kg·ng·h/mL/mg. For the same compound, the “Dose-normalized AUC∞” value [1, 7] was 215 kg·ng·h/mL/mg, the “Dose-normalized AUClast” value ([1]; plasma, male Sprague-Dawley rat, PO 10 mg/kg, vehicle DMSO, average) was 14.6 kg·ng·h/mL/mg and the “Dose-normalized AUC∞” value ([1]; plasma, male Sprague-Dawley rat, PO 10 mg/kg, vehicle DMSO, calculated for two out of three animals) was 16.1 ^f h∙kg ng/mL/mg. For the same compound, the AUClast [1, 8] was 145 ng·h/mL and 264 ng·h/mL, the “AUC∞” value [1, 8] was 149 ng·h/mL and 269 ng·h/mL and the CL [1, 8] was 112 mL/min/kg and 62 mL/min/kg. For the same compound, the MRTlast [1, 8] was 0.87 h and 0.71 h, the Vss [1, 8] was 3.73 L/kg and 7.30 L/kg and 3.27 L/kg and the c0 [1, 8] was 1718 ng/mL and 659 ng/mL and 1395 ng/mL. The t1/2 [1, 8] was 2.00 h, the AUClast [1, 9] was 236 ng·h/mL and 88.0 ng·h/mL and 114 ng·h/mL and the Bioavailability [1, 9] was 11.2% and 4.17% and 5.39%. For the same compound, the “Dose Normalized AUClast” value [1, 9] was 23.6 kg·ng·h/mL/mg and 8.80 kg·ng·h/mL/mg and 11.4 kg·ng·h/mL/mg, the MRTlast [1, 9] was 3.60 h and 2.48 h and the Tmax [1, 9] was 8.00 h. For the same compound, the cmax [1, 9] was 47.1 ng/mL and 15.9 ng/mL and 33.5 ng/mL, the “AUC∞” value [1, 10] was 219 ng·h/mL and the “Dose Normalized AUC∞” value [1, 10] was 10.2 kg·ng·h/mL/mg and 21.9 kg·ng·h/mL/mg. The t1/2 [1, 10] was 11.0 h, the “Adverse effects after intravenous and oral administration” value ([1]; rat, 1 mg/kg IV and 10 mg/kg PO, cassette in 100% DMSO) was “No adverse effects were observed” and the Individual plasma concentration ([1]; rat, IV 1 mg/kg, 0.083 h, animals 1-3, 1 mg/kg) was 568 ng/mL and 345 ng/mL and 693 ng/mL. The Individual plasma concentration ([1]; rat, IV 1 mg/kg, 0.25 h, animals 1-3, 1 mg/kg) was 62.1 ng/mL and 94.6 ng/mL and 171 ng/mL, the Individual plasma concentration ([1]; rat, IV 1 mg/kg, 0.50 h, animals 1-3, 1 mg/kg) was 31.9 ng/mL and 63.2 ng/mL and the Individual plasma concentration ([1]; rat, IV 1 mg/kg, 1.0 h, animals 1-3, 1 mg/kg) was 19.1 ng/mL and 25.4 ng/mL. The Individual plasma concentration ([1]; rat, IV 1 mg/kg, 2.0 h, animals 1-3, 1 mg/kg) was 8.99 ng/mL and 12.6 ng/mL, the Individual plasma concentration ([1]; rat, IV 1 mg/kg, 4.0 h, animals 1-3, 1 mg/kg) was 4.34 ng/mL and 6.41 ng/mL and the Individual plasma concentration ([1]; rat, IV 1 mg/kg, 8.0 h, animals 1-3, 1 mg/kg) was 1.12 ng/mL and 1.58 ng/mL. The Individual plasma concentration ([1]; rat, PO 10 mg/kg, 0.25 h, animals 4-6, 10 mg/kg) was 21.8 ng/mL and 15.9 ng/mL and 33.5 ng/mL, the Individual plasma concentration ([1]; rat, PO 10 mg/kg, 0.50 h, animals 4-6, 10 mg/kg) was 14.8 ng/mL and 24.0 ng/mL and the Individual plasma concentration ([1]; rat, PO 10 mg/kg, 1.0 h, animals 4-6, 10 mg/kg) was 28.3 ng/mL and 13.6 ng/mL and 22.0 ng/mL. For the same compound, the Individual plasma concentration ([1]; rat, PO 10 mg/kg, 2.0 h, animals 4-6, 10 mg/kg) was 11.4 ng/mL and 18.2 ng/mL, the Individual plasma concentration ([1]; rat, PO 10 mg/kg, 4.0 h, animals 4-6, 10 mg/kg) was 27.9 ng/mL and 11.7 ng/mL and 13.6 ng/mL and the Individual plasma concentration ([1]; rat, PO 10 mg/kg, 8.0 h, animals 4-6, 10 mg/kg) was 47.1 ng/mL and 8.04 ng/mL and 5.96 ng/mL. The EC50 [2] was 10 nM and 0.00632 µg/mL.
